Laboratory results as given in patent publication US20080009545A1, “Anticancer agents” (The Ohio State University Research Foundation, priority 2006, published 2008).

Assays:
PrEC cells = test: MTT cell viability, normal prostate epithelial cells (PrECs); assay type: cell-based, human; conditions: 24 h, Prostate Epithelial Cell Basal Medium with growth supplements
Experimental: (§1) Cell culture—LNCaP androgen-dependent (p53+/+) and PC-3 androgen-nonresponsive (P53−/−) prostate cancer cells were obtained from the American Type Culture Collection (Manassas, Va.). The preparation of the stable Bcl-xL-overexpressing LNCaP clone B3 (LNCaP/B3) was previously described (18). PC-3, LNCaP, and LNCaP/B3 cells were maintained in RPMI 1640 supplemented with 10% fetal bovine serum (FBS) at 37° C. in a humidified incubator containing 5% carbon dioxide. Normal human prostate epithelial (PrEC) cells were purchased from Cambrex Bio Science Walkersville, Inc. (East Tutherford, N.J.). Cells were maintained in Prostate Epithelial Cell Medium with growth supplements at 37° C. in a humidified incubator containing 5% carbon dioxide. The recommended seeding density for subculture is 2,500 cells/cm^2. It takes 6-9 days from subculture to attain confluency.
Cell viability analysis—The effect of individual test agents on cell viability was assessed by using the MTT assay in 6 to 12 replicates. PC3, LNCaP, and B3-LNCaP cells were seeded and incubated in poly-p-lysine-coated, 96-well, flat-bottomed plates in RPMI 1640 medium supplemented with 10% FBS medium for 24 hours. PrEC cells were seeded at the recommend density in 96-well, flat-bottomed plates in Prostate Epithelial Cell Medium with growth supplements for 3 days. All cells were exposed to various concentrations of test agents dissolved in ethanol (for α-tocopherol, α-tocopheryl succinate, and TS-3) or DMSO (all other test agents used) with a final concentration of 0.1% in serum-free RPMI 1640 medium for PC3, LNCaP, and LNCaP/B3 cells or in Prostate Epithelial Cell Basal Medium with growth supplements for PrEC cells. Controls received DMSO or ethanol vehicle at a concentration equal to that in drug-treated cells. The medium was removed, replaced by 200 μL of 0.5 mM MTT in 10% FBS-containing RPMI 1640 medium, and cells were incubated in the CO2 incubator at 37° C. for 2 h. […] Absorbance at 570 nm was determined on a plate reader.

Bcl-xL = Bcl-xL (Homo sapiens, UniProt Q07817); test: Competitive fluorescence polarization assay, Bak BH3 peptide binding to Bcl-xL; conditions: for activity in inhibiting Bak peptide-Bcl-xL binding: even at 100 μM
Experimental: Competitive fluorescence polarization assay—The binding affinity of the test agent to Bcl-XL was analyzed by a competitive fluorescence polarization assay in which the ability of the agent to displace the binding of a Bak BH3-domain peptide to either Bcl-2 or Bcl-XL was determined. Flu-BakBH3, a Bak-BH3 peptide labeled at the NH2 terminus with fluorescein, was purchased from Genemed Synthesis (San Francisco, Calif.). COOH-terminal-truncated, His-tagged Bcl-XL was purchased from EMD Biosciences (San Diego, Calif.) and soluble glutathione S-transferase-fused Bcl-2 was obtained from Santa Cruz Biotechnology. The binding analysis was carried out in a dual-path length quartz cell with readings taken at […] at room temperature using a luminescence spectrometer according to an established procedure (19).
(§2) Determination of IC50 values—Data from cell viability and fluorescence polarization assays were analyzed by using the CalcuSyn software (Biosoft, Ferguson, Mo.) to determine IC50 values, in which the calculation was based on the medium-effect equation [i.e., log(fa/fu)=m log(D)−m log(Dm), where fa and fu denote fraction affected and unaffected, respectively; m represents the Hill-type coefficient signifying the sigmoidicity of the dose-effect curve; and D and Dm are the dose used and IC50, respectively.

Bcl-xL/Bak interactions = biological target: T1, Bcl-xL/Bak interactions (Homo sapiens, UniProt Q07817); test: Co-immunoprecipitation of Bcl-xL/Bak in PC-3 cells; assay type: cell-based
T1 construct: the endogenous counterpart in PC-3 cells; endogenous in cells; host or cells: PC-3 cells
Experimental: (§3) Immunoblotting—Cells were seeded in 10% FBS-containing RPMI-1640 medium for 24 h and treated with various agents as aforementioned. After individual treatments for 24 h, the adherent cells in T-25 or T-75 flasks were scraped, combined with the medium, and centrifuged at 2200 rpm for 10 min. The […] were recovered, placed on ice, and triturated with 20 to 50 μL of a chilled lysis buffer (M-PER Mammalian Protein Extraction Reagent; Pierce, Rockford, Ill.), to which was added 1% protease inhibitor cocktail (set III; EMD Biosciences, Inc., San Diego, Calif.). After a 30-min incubation on ice, the mixture was centrifuged at 16,100×g for 3 min. […]
Co-immunoprecipitation—PC3 cells treated with 40 μM α-tocopheryl succinate or 10 μM TS-1 for 24 h were scraped off the flask, transferred into centrifuge tubes, and centrifuged at 2200 rpm for 10 min to pellet the cells. […] Equal amounts of proteins from these lysates, as determined by the Bradford assay, were mixed with anti-Bcl-2 or anti Bcl-XL antibodies in an orbital shaker at 23° C. for 2 h, followed by 100 μL of protein A-agarose bead slurry at 4° C. for 12 h. […]

Bcl-2/Bak interactions = biological target: T2, Bcl-2/Bak interactions (Homo sapiens, UniProt P10415); test: Co-immunoprecipitation of Bcl-2/Bak in PC-3 cells; assay type: cell-based
T2 construct: endogenous in cells; host or cells: PC-3 cells
Experimental: as §3
The pellet was resuspended in ice-cold 0.5 mL of radioimmunoprecipitation assay buffer (50 mM Tris-HCl, pH 7.4, 1% Nonidet P-40, 0.25% sodium deoxycholate, 150 mM NaCl, 1 mM EDTA, and 1% protease inhibitor cocktail) and gently mixed on an orbital shaker at 4° C. for 15 min, followed by centrifugation at 14,000×g for 15 min to yield cell lysates. […] Equal amounts of proteins from these lysates, as determined by the Bradford assay, were mixed with anti-Bcl-2 or anti Bcl-XL antibodies in an orbital shaker at 23° C. for 2 h, followed by 100 μL of protein A-agarose bead slurry at 4° C. for 12 h. […]

PC-3 cells [1] = test: Apoptosis detection in PC-3 cells (cell death ELISA, cytochrome c release, PARP cleavage); assay type: cell-based, human; conditions: 24 h, serum-free medium
Experimental: Apoptosis detection by ELISA—Induction of apoptosis was assessed with a Cell Death Detection ELISA kit (Roche Diagnostics) by following the manufacturer's instruction. This test is based on the quantitative determination of cytoplasmic histone-associated DNA fragments in the form of mononucleosomes and oligonucleosomes after induced apoptotic death. In brief, 5×10^6 cells were cultured in a T-25 flask in 10% FBS-containing medium for 24 h, and were treated with the test agents at various concentrations in serum-free medium for 24 hours. Both floating and adherent cells were collected; cell lysates equivalent to 5×10^5 cells were used in the ELISA.
Western blot analysis of cytochrome c release into the cytoplasm—Cytosolic-specific, mitochondria-free lysates were prepared according to an established procedure (18). In brief, after individual treatments for 24 h, both the incubation medium and adherent cells in T-75 flasks were collected and centrifuged at 600×g for 5 min. […] Bands were transferred to nitrocellulose membranes and analyzed by immunoblotting with anti-cytochrome c antibodies as described below. […]

LNCaP cells = test: MTT cell viability, LNCaP cells; assay type: cell-based, human; conditions: for activity in suppressing cell viability: even at 100 μM, 24 h
Experimental: as §1
(§4) Cell viability analysis—The effect of individual test agents on cell viability was assessed by using the MTT assay in 6 to 12 replicates. PC3, LNCaP, and B3-LNCaP cells were seeded and incubated in poly-p-lysine-coated, 96-well, flat-bottomed plates in RPMI 1640 medium supplemented with 10% FBS medium for 24 hours. PrEC cells were seeded at the recommend density in 96-well, flat-bottomed plates in Prostate Epithelial Cell Medium with growth supplements for 3 days. […] Absorbance at 570 nm was determined on a plate reader.
as §2

PC-3 cells [2] = test: MTT cell viability, PC-3 cells; assay type: cell-based, human; conditions: for activity in suppressing cell viability: even at 100 μM, 24 h
Experimental: as §1, §4, §2

LNCaP/B3 cells = test: MTT cell viability, Bcl-xL-overexpressing LNCaP (LNCaP/B3) cells; assay type: cell-based, human; conditions: LNCaP/B3 vs LNCaP cells, 24-h exposure; to a degree greater than that of PC-3 cells
Experimental: as §1, §4

Bcl-2 = Bcl-2 (Homo sapiens, UniProt P10415); test: Competitive fluorescence polarization assay, Bak BH3 peptide binding to Bcl-2; conditions: Flu-BakBH3, read-out: IC50, disruption of BH3 domain-mediated interactions (Bak BH3 peptide) with Bcl-2
Experimental: Competitive fluorescence polarization assay—The binding affinity of the test agent to Bcl-XL was analyzed by a competitive fluorescence polarization assay in which the ability of the agent to displace the binding of a Bak BH3-domain peptide to either Bcl-2 or Bcl-XL was determined. Flu-BakBH3, a Bak-BH3 peptide labeled at the NH2 terminus with fluorescein, was purchased from Genemed Synthesis (San Francisco, Calif.). COOH-terminal-truncated, His-tagged Bcl-XL was purchased from EMD Biosciences (San Diego, Calif.) and soluble glutathione S-transferase-fused Bcl-2 was obtained from Santa Cruz Biotechnology. […] Determination of IC50 values—Data from cell viability and fluorescence polarization assays were analyzed by using the CalcuSyn software (Biosoft, Ferguson, Mo.) to determine IC50 values, in which the calculation was based on the medium-effect equation [i.e., log(fa/fu)=m log(D)−m log(Dm), where fa and fu denote fraction affected and unaffected, respectively; m represents the Hill-type coefficient signifying the sigmoidicity of the dose-effect curve; and D and Dm are the dose used and IC50, respectively.

caspase-9 = test: Caspase-9 activation in PC-3 cells (Western blot); assay type: cell-based, human; conditions: 24 h
Experimental: (§5) Immunoblotting—Cells were seeded in 10% FBS-containing RPMI-1640 medium for 24 h and treated with various agents as aforementioned. After individual treatments for 24 h, the adherent cells in T-25 or T-75 flasks were scraped, combined with the medium, and centrifuged at 2200 rpm for 10 min. The […] were recovered, placed on ice, and triturated with 20 to 50 μL of a chilled lysis buffer (M-PER Mammalian Protein Extraction Reagent; Pierce, Rockford, Ill.), to which was added 1% protease inhibitor cocktail (set III; EMD Biosciences, Inc., San Diego, Calif.). After a 30-min incubation on ice, the mixture was centrifuged at 16,100×g for 3 min. Two μL of the suspension was taken for protein analysis using the Bradford assay kit (Bio-Rad, Hercules, Calif.); to the remaining solution was added the same volume of 2× SDS-polyacryl-amide gel electrophoresis sample loading buffer (100 mM Tris-HCl, pH 6.8, 4% SDS, 5% β-mercaptoethanol, 20% glycerol, and 0.1% bromphenol blue). The mixture was boiled for 10 min. Equal amounts of proteins were loaded onto 8-12% SDS-polyacrylamide gels. After electrophoresis, protein bands were transferred to nitrocellulose membranes in a semidry transfer cell. […]

[3] = test system: Bcl-xL, Bcl-2, Bax, Bak, Bad, and Bid; test: Expression of Bcl-2 family members in PC-3 cells (Western blot); assay type: cell-based, human; conditions: 24 h, serum-free RPMI 1640
Experimental: as §5

[4] = 24-h exposure, serum-free RPMI 1640, MTT, read-out: IC50, proliferation inhibition

Bcl-xL, sequence (Q07817 1-212 limits assumed): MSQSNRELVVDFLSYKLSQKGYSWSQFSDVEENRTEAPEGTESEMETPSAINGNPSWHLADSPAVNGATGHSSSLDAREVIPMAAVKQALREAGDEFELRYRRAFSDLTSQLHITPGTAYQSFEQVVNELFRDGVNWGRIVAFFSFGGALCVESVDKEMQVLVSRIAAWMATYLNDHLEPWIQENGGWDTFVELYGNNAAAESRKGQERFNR
T1 sequence (Q07817 whole entry): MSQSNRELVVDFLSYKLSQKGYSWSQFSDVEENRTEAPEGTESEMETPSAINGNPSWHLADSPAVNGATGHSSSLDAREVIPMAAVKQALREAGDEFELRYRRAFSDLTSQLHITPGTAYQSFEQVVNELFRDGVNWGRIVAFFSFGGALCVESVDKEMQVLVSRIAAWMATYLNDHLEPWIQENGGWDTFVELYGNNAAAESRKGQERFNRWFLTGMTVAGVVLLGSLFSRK
T2 sequence (P10415 whole entry): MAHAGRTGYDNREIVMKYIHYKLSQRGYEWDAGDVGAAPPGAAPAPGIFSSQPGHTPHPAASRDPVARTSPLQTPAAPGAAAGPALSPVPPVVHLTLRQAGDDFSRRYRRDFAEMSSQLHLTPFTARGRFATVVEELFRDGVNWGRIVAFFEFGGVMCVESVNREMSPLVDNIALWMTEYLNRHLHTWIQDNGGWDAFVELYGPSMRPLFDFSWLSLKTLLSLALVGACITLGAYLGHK
Bcl-2, sequence (P10415 whole entry, species assumed, the tested form may be a part): as the sequence (P10415 whole entry) above

With Cc1c(C)c2c(c(C)c1OC(=O)CCC(=O)O)CCC(C)(CCCC(C)CCCC(C)C)O2 (stereo not shown) [TS-1, succinic acid mono-[2-(4,8-dimethyl-nonyl)-2,5,7,8-tetramethyl-chroman-6-yl]ester] the “antiproliferative effect on normal prostate epithelial cells” value (shortened to “antiproliferative effect”) (PrEC cells) was “resistant”, the “difference in IC50 between TS-1 and α-tocopheryl succinate in blocking Bak peptide binding to Bcl-xL” value (Bcl-xL) was 3 fold and the “intracellular binding of Bak to Bcl-xL” value (Bcl-xL/Bak interactions; 10 μM) was “abolished”. For the same compound, the “intracellular binding of Bak to Bcl-2” value (Bcl-2/Bak interactions; 10 μM) was “abolished” and the apoptotic death (PC-3 cells [1]) was “evidenced by DNA fragmentation, cytochrome c release, and PARP cleavage”.
With Cc1c(C)c2c(c(C)c1OC(=O)CCC(=O)O)CCC(C)(C)O2 [TS-3, succinic acid mono-(2,2,5,7,8-pentamethyl-chroman-6-yl)ester] the “activity in suppressing cell viability” value (LNCaP cells) was “lacked appreciable activity”, the “activity in suppressing cell viability” value (PC-3 cells [2]) was “lacked appreciable activity” and the “Bcl-xL binding affinity (effect of structural change)” value (Bcl-xL) was “abrogated the binding affinity”. For the same compound, the “activity in inhibiting Bak peptide-Bcl-xL binding” value (Bcl-xL) was “lacked appreciable activity”.
With Cc1c(C)c2c(c(C)c1O)CCC(C)(CCCC(C)CCCC(C)C)O2 (stereo not shown) [TS-4, 2-(4,8-dimethyl-nonyl)-2,5,7,8-tetramethyl-chroman-6-ol] the “activity in suppressing cell viability” value (LNCaP cells) was “lacked appreciable activity”, the “activity in suppressing cell viability” value (PC-3 cells [2]) was “lacked appreciable activity” and the “activity in inhibiting Bak peptide-Bcl-xL binding” value (Bcl-xL) was “lacked appreciable activity”.
For Cc1c(C)c2c(c(C)c1OCCC(=O)O)CCC(C)(CCCC(C)CCCC(C)C)O2 (stereo not shown) [TS-5, 3-[2,5,7,8-tetramethyl-2-(4,8-dimethyl-nonyl)-chroman-6-yloxy]propionic acid], the “antiproliferative effect” value (PrEC cells) was “resistant”.
With Cc1c(C)c2c(c(C)c1OC(=O)CCC(=O)O)CC[C@@](C)(CCC[C@H](C)CCC[C@H](C)CCCC(C)C)O2 [α-tocopheryl succinate, reference compound] the IC50 (LNCaP cells; [4]) was 15 µM, the IC50 (PC-3 cells [2]; [4]) was 40 µM and the “resistance to induced cell death by ectopic Bcl-xL expression” value (LNCaP/B3 cells) was “substantially increased the resistance”. For the same compound, the “antiproliferative effect” value (PrEC cells) was “resistant”, the IC50 (Bcl-xL; fluorescence polarization, Flu-BakBH3, read-out: IC50, disruption of BH3 domain-mediated interactions (Bak BH3 peptide) with Bcl-xL) was 26 ± 2 µM and the IC50 (Bcl-2) was 26 ± 2 µM. For the same compound, the “level of Bak associated with Bcl-xL” value (Bcl-xL/Bak interactions; 40 μM, 12 h, vs DMSO control) was “significantly reduced”, the “level of Bak associated with Bcl-2” value (Bcl-2/Bak interactions; 40 μM, 12 h, vs DMSO control) was “significantly reduced” and the apoptotic death (PC-3 cells [1]) was “evidenced by DNA fragmentation, cytochrome c release, and PARP cleavage”. For the same compound, the caspase-9 activation (caspase-9) was “in a dose-dependent manner”, the Bad expression [3] was “decrease” and the “expression level of Bcl-2 members other than Bad (Bcl-xL, Bcl-2, Bax, Bak, Bid)” value [3] was “did not cause appreciable changes”.
